Assay results taken from article PMC12290673, “Antileishmanial and Antitoxoplasmal Activities of 1,4-Dihydropyridines” (ACS Omega, 2025).

Columns and labels:
L. major promastigotes = assay: Activity against L. major promastigotes (MTT, 72 h); format: cell-based, Leishmania major; settings: Leishmania major, mean ± SD, read-out: EC50 L. major prom
Protocol: (§1) L. major promastigotes were isolated and maintained according to a described method. BALB/c mice were injected at the hind footpads with 1 × 10^6 L. major metacyclic promastigotes. L. major amastigotes were collected from the infected mice. After 8 weeks had elapsed since inoculation, Schneider’s medium (Invitrogen, USA) containing antibiotics and 10% FBS was used to transform isolated amastigotes into promastigotes by incubation at 26 °C. Amastigote-derived promastigotes with less than five in vitro passages were only used for infection.
To assess the activity of the compounds against L. major promastigotes, 10^6 promastigotes/mL were cultured in 96-well plates in Schneider’s medium with 10% FBS. Then, the compounds or amphotericin B (AmB) were added to obtain the final concentrations (50, 25, 12.5, 6.25, 3.13, 1.65, 0.75, or 0.37 μg mL^–1). Negative control wells contained cultures with DMSO (1%) only. Plates were incubated at 26 °C for 72 h to evaluate the antiproliferative effect. The colorimetric MTT method was used to count viable promastigotes under a microplate absorbance spectrophotometer (xMark, Bio-Rad, USA) at 570 nm. The experiment was performed in triplicate.

L. major amastigotes = assay: Activity against L. major amastigotes in peritoneal macrophages (percentage of infected macrophages, Giemsa, 72 h); format: cell-based, Leishmania major; settings: Leishmania major, intracellular amastigotes, mean ± SD, read-out: EC50 L. major ama
Protocol: as §1
(§2) Female BALB/c mouse peritoneal macrophages (6–8 weeks old) were used to culture L. major amastigotes to assess the activity of the compounds against amastigotes. Briefly, 1 mL of 3% Brewer’s thioglycollate medium/mouse was injected into the peritoneal cavity. After 4 days, the abdominal skin was removed to expose the peritoneal wall. Then, 3 mL of RPMI 1640 medium was injected before cells were collected by aspiration, whereupon 96-well plates containing RPMI 1640 medium with 10% FBS were used to culture 5 × 10^4 cells/well, which were incubated at 37 °C under 5% CO2 for 4 h. After washing with PBS, RPMI 1640 medium containing 5 × 10^5 promastigotes were added to each well. Next, the cells were incubated at 37 °C under humidified 5% CO2 for 24 h to enhance infection and differentiation of amastigotes. Washing with PBS several times removed free promastigotes. Fresh complete RPMI 1640 medium containing one of the tested compounds or AmB at the desired final concentration (50, 25, 12.5, 6.25, 3.13, 1.65, 0.75, or 0.37 μg mL^–1) was added and incubated at 37 °C under a humidified 5% CO2 atmosphere for 72 h. DMSO (1%), only in complete RPMI media, was used as the negative control. The percentage of infected macrophages was assessed microscopically after the medium was removed, followed by washing with PBS, fixation with methanol, and staining with Giemsa. The reading was performed in triplicate. Handling of the laboratory animals followed the instructions and rules of the Committee of Research Ethics, Deanship of Scientific Research, Qassim University, permission number 20–03–20.

[1] = system: T. gondii tachyzoites (RH strain); assay: Anti-Toxoplasma activity (infection index in Vero cells, 72 h); format: cell-based, Toxoplasma gondii; settings: Toxoplasma gondii, Vero, mean ± SD
Protocol: Tachyzoites of the T. gondii RH strain were cultivated in Vero cells according to a published method. Complete RPMI 1640 medium (Invitrogen, USA) with 10% fetal bovine serum (FBS, Invitrogen, USA) was used to culture Vero cells in 96-well plates (5 × 10^3 cells/well in 200 μL of medium), which were incubated at 37 °C and under 5% CO2 for 24 h. This was followed by washing with phosphate-buffered saline (PBS) to remove the medium. Then, RPMI 1640 medium with 2% FBS containing T. gondii tachyzoites (RH strain) at a ratio of 5 (parasite): 1 (Vero cells) was added. After incubation at 37 °C and under 5% CO2 for 5 h, the cells were washed with PBS and overlaid with medium containing one of the tested compounds or atovaquone (ATO) at 50, 25, 12.5, 6.25, 3.13, 1.65, 0.75, or 0.37 μg mL^–1.
After incubation at 37 °C and under 5% CO2 for 72 h, the cells were stained with 1% toluidine before being examined under an inverted photomicroscope (MCD-400, Leica, Japan) to determine the T. gondii infection index (number of infected cells from 200 tested cells). The experiment was performed in triplicate.

Vero cells = assay: Cytotoxicity assay (MTT), Vero cells; format: cell-based, African Green Monkey; settings: Chlorocebus sabaeus, 72 h, mean ± SD
Protocol: (§3) The MTT colorimetric assay was conducted to assess the cytotoxicity of the compounds according to a method described previously. Briefly, Vero cells or macrophages were cultured in 96-well plates (5 × 10^3 cells/well/200 μL) in RPMI 1640 medium with 10% FBS at 37 °C and under 5% CO2 for 24 h. Thereafter, PBS was used to wash the cells. Then, the compounds in RPMI complete medium with 10% FBS (at varying concentrations of 50, 25, 12.5, 6.25, 3.13, 1.65, 0.75, or 0.37 μg mL^–1) were added to 96-well plates and incubated for 72 h. Cells treated with a medium containing only DMSO (1%) were used as the negative control. After washing, MTT (1 mg mL^–1 in RPMI 1640 medium) was added to each well. The cells were incubated for 4 h, and the supernatant was removed. Next, 150 μL of DMSO was added, and a microplate absorbance spectrophotometer was applied for colorimetric analysis (λ = 540 nm). Cytotoxic effects were expressed by IC50 values (concentration that caused a 50% reduction of viable cells). The experiment was performed in triplicate.

macrophages = assay: Cytotoxicity assay (MTT), macrophages; format: cell-based, BALB/c mouse; settings: Mus musculus, Macrophage; 72 h, mean ± SD; read-out: IC50 macro
Protocol: as §2, §3

[2] = system: L. amazonensis amastigotes; set-up: method as in Oliveira and co-workers; settings: ref Oliveira and co-workers; read-out: IC50 against L. amazonensis amastigotes; cited from earlier work

- EC50 (L. major promastigotes): > 58.2 µM
- EC50 (L. major amastigotes): > 58.2 µM
Structure (SMILES): CCOC(=O)C1=C(C)NC2=C(C(=O)CC(C)(C)C2)C1c1cccc(F)c1 (stereo not drawn) [Compound 7]
- EC50 [1]: > 58.2 µM
- IC50 (Vero cells): > 58.2 µM
- IC50 (macrophages): > 58.2 µM
- IC50 [2]: 12.5 µM
